Experimental data from ChEMBL document CHEMBL1250518, “Nonsteroidal dissociated glucocorticoid agonists containing azaindoles as steroid A-ring mimetics” (J Med Chem, 2010).
The source made the active and inactive calls. No cut-off for these calls is given here.

Assays:
[1] = test system: Mus musculus; assay: Toxicity in collagen and Freund's complete adjuvant-induced B10.RIII mouse arthritis model assessed as increase of serum insulin level at 30 mg/kg, po qd for 5 weeks; type: organism-based; set-up: dose 30 mg/kg, route oral; conditions: in vivo, 840 h
[2] = test system: Mus musculus; assay: Toxicity in B10.RIII mouse assessed as increase of body fat content at 30 mg/kg, po qd for 5 weeks; type: organism-based; set-up: dose 30 mg/kg, route oral; conditions: in vivo, 840 h
[3] = test system: Mus musculus; assay: Toxicity in B10.RIII mouse assessed as increase of triglyceride level at 30 mg/kg, po qd for 5 weeks; type: organism-based; set-up: dose 30 mg/kg, route oral; conditions: in vivo, 840 h
[4] = molecular target: T1, Mineralocorticoid receptor (Homo sapiens, UniProt P08235); assay: Binding affinity to mineralocorticoid receptor expressed in baculovirus-infected insect cells using tetramethylrhodamine labeled Dexamethasone by fluorescence polarization microplate assay
T1 sequence (P08235 whole entry): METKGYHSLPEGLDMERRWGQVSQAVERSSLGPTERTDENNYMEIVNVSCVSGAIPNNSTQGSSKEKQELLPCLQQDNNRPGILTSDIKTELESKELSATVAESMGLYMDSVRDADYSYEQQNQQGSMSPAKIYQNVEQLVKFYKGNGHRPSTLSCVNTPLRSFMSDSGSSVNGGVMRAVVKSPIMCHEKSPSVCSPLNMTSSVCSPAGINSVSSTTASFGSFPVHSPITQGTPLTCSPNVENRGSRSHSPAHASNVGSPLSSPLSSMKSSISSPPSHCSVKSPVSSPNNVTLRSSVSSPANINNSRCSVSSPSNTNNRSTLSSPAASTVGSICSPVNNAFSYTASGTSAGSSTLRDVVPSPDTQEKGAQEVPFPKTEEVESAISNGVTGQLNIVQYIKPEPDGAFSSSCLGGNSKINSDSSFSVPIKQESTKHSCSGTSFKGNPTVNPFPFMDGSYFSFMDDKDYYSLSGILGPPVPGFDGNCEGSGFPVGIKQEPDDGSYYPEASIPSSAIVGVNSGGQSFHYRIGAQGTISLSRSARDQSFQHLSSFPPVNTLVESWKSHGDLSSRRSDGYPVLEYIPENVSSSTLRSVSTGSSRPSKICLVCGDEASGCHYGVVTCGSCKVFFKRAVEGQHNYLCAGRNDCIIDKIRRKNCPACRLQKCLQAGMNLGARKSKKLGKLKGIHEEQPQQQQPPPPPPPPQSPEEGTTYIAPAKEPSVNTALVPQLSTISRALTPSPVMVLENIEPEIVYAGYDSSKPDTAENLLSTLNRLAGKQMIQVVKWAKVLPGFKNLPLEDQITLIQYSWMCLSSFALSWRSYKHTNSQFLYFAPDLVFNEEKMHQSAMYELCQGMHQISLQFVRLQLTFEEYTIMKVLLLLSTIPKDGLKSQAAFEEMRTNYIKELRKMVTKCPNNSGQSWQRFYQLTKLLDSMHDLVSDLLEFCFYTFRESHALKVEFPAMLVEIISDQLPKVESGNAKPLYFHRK

[5] = test system: Mus musculus; assay: Toxicity in collagen and Freund's complete adjuvant-induced B10.RIII mouse arthritis model assessed as increase of free fatty acids level at 30 mg/kg, po qd for 5 weeks; type: organism-based; set-up: dose 30 mg/kg, route oral; conditions: in vivo, 840 h
[6] = test system: Mus musculus; assay: Antiinflammatory effect in collagen and Freund's complete adjuvant-induced B10.RIII mouse arthritis model assessed as inhibition of disease progression administered as po qd for 5 weeks; type: functional; conditions: 840 h
[7] = test system: Mus musculus; assay: Toxicity in B10.RIII mouse assessed as increase of serum insulin level at 30 mg/kg, po qd for 5 weeks; type: organism-based; set-up: dose 30 mg/kg, route oral; conditions: in vivo, 840 h
[8] = test system: Mus musculus; assay: Toxicity in collagen and Freund's complete adjuvant-induced B10.RIII mouse arthritis model assessed as increase of body fat content at 30 mg/kg, po qd for 5 weeks; type: organism-based; set-up: dose 30 mg/kg, route oral; conditions: in vivo, 840 h
[9] = test system: Mus musculus; assay: Toxicity in collagen and Freund's complete adjuvant-induced B10.RIII mouse arthritis model assessed as increase of triglyceride level at 30 mg/kg, po qd for 5 weeks; type: organism-based; set-up: dose 30 mg/kg, route oral; conditions: in vivo, 840 h
[10] = test system: Mus musculus; assay: Antiinflammatory effect in collagen and Freund's complete adjuvant-induced B10.RIII mouse arthritis model assessed as inhibition of disease progression at 30 mg/kg, po qd for 5 weeks; type: functional; conditions: 840 h
[11] = Clearance in Sprague-Dawley rat at 2 mg/kg, iv; type: ADME, organism-based; set-up: dose 2 mg/kg, route intravenous; conditions: in vivo
[12] = molecular target: T2, Glucocorticoid receptor (Homo sapiens, UniProt P04150); assay: Binding affinity to glucocorticoid receptor expressed in baculovirus-infected insect cells using tetramethylrhodamine labeled Dexamethasone by fluorescence polarization microplate assay
T2 sequence (P04150 whole entry): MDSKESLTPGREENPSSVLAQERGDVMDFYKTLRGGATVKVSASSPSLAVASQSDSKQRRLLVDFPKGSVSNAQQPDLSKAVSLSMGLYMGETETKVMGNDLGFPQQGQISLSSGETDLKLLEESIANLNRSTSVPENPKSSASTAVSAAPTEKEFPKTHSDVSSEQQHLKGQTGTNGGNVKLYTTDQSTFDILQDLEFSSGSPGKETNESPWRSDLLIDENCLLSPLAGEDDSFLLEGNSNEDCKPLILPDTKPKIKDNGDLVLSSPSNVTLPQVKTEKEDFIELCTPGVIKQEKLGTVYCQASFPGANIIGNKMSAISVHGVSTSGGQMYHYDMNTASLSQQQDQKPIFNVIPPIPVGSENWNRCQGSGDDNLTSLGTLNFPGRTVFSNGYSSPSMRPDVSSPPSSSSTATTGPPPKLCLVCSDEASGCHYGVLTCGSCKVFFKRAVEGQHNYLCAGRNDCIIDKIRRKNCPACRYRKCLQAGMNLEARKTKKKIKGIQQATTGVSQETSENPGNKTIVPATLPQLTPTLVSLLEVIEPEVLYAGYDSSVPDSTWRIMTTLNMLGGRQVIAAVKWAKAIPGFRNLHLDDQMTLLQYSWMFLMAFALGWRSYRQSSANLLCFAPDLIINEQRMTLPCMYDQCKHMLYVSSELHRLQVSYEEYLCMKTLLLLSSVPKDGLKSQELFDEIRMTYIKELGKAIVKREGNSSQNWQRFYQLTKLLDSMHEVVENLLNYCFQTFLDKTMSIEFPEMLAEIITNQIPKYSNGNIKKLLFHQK

[13] = AUC (infinity) in Sprague-Dawley rat at 30 mg/kg, po; type: ADME, organism-based, Plasma; set-up: time infinity, dose 30 mg/kg, route oral; conditions: Sprague-Dawley, plasma
[14] = molecular target: T2, Glucocorticoid receptor; assay: Transactivation activity at glucocorticoid receptor in HFF assessed as induction of aromatase activity after 18 to 24 hrs by ELISA; type: cell-based
[15] = test system: Mus musculus; assay: Antiinflammatory effect in collagen and Freund's complete adjuvant-induced B10.RIII mouse arthritis model assessed as inhibition of disease progression at 100 mg/kg, po qd for 5 weeks; type: functional, organism-based; set-up: dose 100 mg/kg
[16] = Half life in Sprague-Dawley rat at 2 mg/kg, iv; type: ADME, organism-based; set-up: dose 2 mg/kg, route intravenous; conditions: in vivo
[17] = test system: Mus musculus; assay: Toxicity in B10.RIII mouse assessed as increase of body fat content at 100 mg/kg, po qd for 5 weeks; type: organism-based; set-up: dose 100 mg/kg, route oral; conditions: in vivo, 840 h
[18] = Volume of distribution at steady state in Sprague-Dawley rat at 2 mg/kg, iv; type: ADME, organism-based; set-up: dose 2 mg/kg, route intravenous; conditions: in vivo, read-out: Vdss
[19] = molecular target: T2, Glucocorticoid receptor; assay: Transactivation activity at glucocorticoid receptor in human HeLa cells transfected with luciferase gene linked to MMTV promoter by luciferase assay; type: cell-based
[20] = molecular target: T3, Progesterone receptor (Homo sapiens, UniProt P06401); assay: Binding affinity to progesterone receptor expressed in baculovirus-infected insect cells using tetramethylrhodamine labeled RU-486 by fluorescence polarization microplate assay
T3 sequence (P06401 whole entry): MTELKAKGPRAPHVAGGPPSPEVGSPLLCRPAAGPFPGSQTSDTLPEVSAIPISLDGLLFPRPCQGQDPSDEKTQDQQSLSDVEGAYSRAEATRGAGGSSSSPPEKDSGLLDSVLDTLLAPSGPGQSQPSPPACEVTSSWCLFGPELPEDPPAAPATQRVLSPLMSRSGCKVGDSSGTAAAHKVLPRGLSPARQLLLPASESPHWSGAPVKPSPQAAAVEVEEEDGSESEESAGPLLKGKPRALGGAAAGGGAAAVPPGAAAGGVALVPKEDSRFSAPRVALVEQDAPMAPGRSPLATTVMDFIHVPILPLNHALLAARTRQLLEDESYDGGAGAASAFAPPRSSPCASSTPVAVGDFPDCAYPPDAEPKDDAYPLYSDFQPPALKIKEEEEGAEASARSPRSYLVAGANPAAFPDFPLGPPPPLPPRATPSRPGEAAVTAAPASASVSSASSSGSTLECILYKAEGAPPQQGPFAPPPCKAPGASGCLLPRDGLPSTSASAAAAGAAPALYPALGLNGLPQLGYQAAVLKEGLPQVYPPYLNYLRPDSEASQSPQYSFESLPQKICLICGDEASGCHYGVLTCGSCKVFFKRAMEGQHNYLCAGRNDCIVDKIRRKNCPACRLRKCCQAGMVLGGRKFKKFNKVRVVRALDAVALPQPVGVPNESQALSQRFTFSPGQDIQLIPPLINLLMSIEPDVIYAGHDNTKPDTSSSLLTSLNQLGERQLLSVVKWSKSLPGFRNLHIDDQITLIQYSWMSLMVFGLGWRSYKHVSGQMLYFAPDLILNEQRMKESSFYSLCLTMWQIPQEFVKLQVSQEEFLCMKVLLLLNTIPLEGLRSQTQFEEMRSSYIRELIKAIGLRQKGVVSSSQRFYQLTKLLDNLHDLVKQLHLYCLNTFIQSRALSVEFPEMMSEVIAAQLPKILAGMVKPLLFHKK

[21] = Oral bioavailability in Sprague-Dawley rat at 30 mg/kg; type: ADME, organism-based; conditions: Sprague-Dawley, in vivo
[22] = Cmax in Sprague-Dawley rat at 30 mg/kg, po; type: ADME, organism-based; set-up: dose 30 mg/kg, route oral; conditions: in vivo
[23] = test system: Mus musculus; assay: Antiinflammatory activity in po dosed BALB/c mouse assessed as reduction of LPS-induced plasma TNFalpha level administered 1 hr before LPS challenge by ELISA; type: functional
[24] = test system: Mus musculus; assay: Toxicity in B10.RIII mouse assessed as increase of serum insulin level at 100 mg/kg, po qd for 5 weeks; type: organism-based; set-up: dose 100 mg/kg, route oral; conditions: in vivo, 840 h
[25] = molecular target: T2, Glucocorticoid receptor; assay: Transrepression activity at glucocorticoid receptor in HFF assessed as inhibition of IL-1-induced IL-6 production after 18 to 24 hrs by ELISA; type: cell-based
[26] = Half life in Sprague-Dawley rat at 5 mg/kg, iv; type: ADME, organism-based; set-up: dose 5 mg/kg, route intravenous; conditions: in vivo
[27] = Tmax in Sprague-Dawley rat at 30 mg/kg, po; type: ADME, organism-based; set-up: dose 30 mg/kg, route oral; conditions: in vivo
[28] = Volume of distribution at steady state in Sprague-Dawley rat at 5 mg/kg, iv; type: ADME, organism-based; set-up: dose 5 mg/kg, route intravenous; conditions: in vivo, read-out: Vdss
[29] = Clearance in Sprague-Dawley rat at 5 mg/kg, iv; type: ADME, organism-based; set-up: dose 5 mg/kg, route intravenous; conditions: in vivo

| Compound | IC50 [4] | ED50 [6] | IC50 [12] | AUC(0-inf) [13] | EC50 [14] | IC50 [19] | IC50 [20] | bioavailability [21] | Cmax [22] | IC50 [25] | further results |
| --- | --- | --- | --- | --- | --- | --- | --- | --- | --- | --- | --- |
| C[C@]12C=CC(=O)C=C1CC[C@@H]1[C@@H]2[C@@H](O)C[C@@]2(C)[C@H]1CC[C@]2(O)C(=O)CO [PREDNISOLONE] | 44 nM | 10 mg/kg | – | – | – | – | – | – | – | – | Activity [1]: Non-toxic; Activity [2]: Toxic; Activity [3]: Toxic; Activity [5]: Non-toxic; Activity [7]: Toxic; Activity [8]: Non-toxic; Activity [9]: Toxic; inhibition in vivo at 30 mg/kg [10]: 77% |
| COc1ccc(-c2cncnc2)cc1C(C)(C)C[C@@](O)(Cc1cc2ccncc2[nH]1)C(F)(F)F | > 2000 nM | 30 mg/kg | 8 nM | 5930 ng·h/mL | > 2000 nM | > 2000 nM | > 2000 nM | 97% | 422 ng/mL | 20 nM | clearance [11]: 83 mL/min/kg; Activity [15]: Active; half-life [16]: 1 h; Activity [17]: Non-toxic; Vd [18]: 6.6 L/kg; ED50 [23]: < 1 mg/kg; Activity [24]: Non-toxic |
| COc1ccc(F)cc1C(C)(C)C[C@@](O)(Cc1cc2cnccc2[nH]1)C(F)(F)F | 58 nM | – | 1.4 nM | – | 35 nM | 22 nM | 600 nM | – | – | 2 nM | – |
| CC(C)(CC(O)(Cc1cc2ccncc2[nH]1)C(F)(F)F)c1ccccc1 (stereo not drawn) | 810 nM | – | 9.3 nM | – | > 2000 nM | > 2000 nM | 190 nM | – | – | 31 nM | – |
| CC(C)(CC(O)(Cc1cc2ccncc2[nH]1)C(F)(F)F)c1cc(Cl)cc2c1OCC2 (stereo not drawn) | 540 nM | – | 7 nM | – | 120 nM | > 2000 nM | 1210 nM | – | – | 17 nM | – |
| COc1ccc(F)cc1C(C)(C)C[C@@](O)(Cc1cc2ccncc2[nH]1)C(F)(F)F | 380 nM | – | 1.4 nM | 1740 ng·h/mL | 10 nM | 20 nM | 1150 nM | 21% | 427 ng/mL | 6 nM | half-life [26]: 1.7 h; Tmax [27]: 2 h; Vd [28]: 8.7 L/kg; clearance [29]: 61 mL/min/kg |
